US4864023A, “Pyrido(3,2,1-IJ)-1,3,4-benzoxadiazine derivatives” (priority 1988, dated 1989)
Values after ≈ are worked out from the molar mass of the structure shown. Where two headings read alike, the source gives them in different places.

Assays:
[1] = system: Bacillus subtilis PCI 219; assay: in vitro antibacterial activity, standard agar dilution method; type: cell-based; conditions: PCI219, aerobic, read-out: minimum inhibitory concentration (MIC)
[2] = acute toxicity by oral administration; conditions: mouse, in vivo; oral administration, ICR mice; read-out: LD50
Description: The acute toxicity of these compounds was examined by oral administration in ICR mice.

[3] = system: Enterobacter aerogenes NR 2945; assay: in vitro antibacterial activity, standard agar dilution method; type: cell-based; conditions: Klebsiella aerogenes, NR2945, aerobic, read-out: minimum inhibitory concentration (MIC)
[4] = system: Pseudomonas stutzeri IFO 12695; assay: as above; type: cell-based; conditions: Stutzerimonas stutzeri, IFO12695, aerobic, read-out: minimum inhibitory concentration (MIC)
[5] = system: Enterobacter cloacae NR 2946; assay: as above; type: cell-based; conditions: NR2946, aerobic, read-out: minimum inhibitory concentration (MIC)
[6] = system: Staphylococcus aureus NR 2855; assay: as above; type: cell-based; conditions: NR2855; Staphylococcus aureus NR 2855; aerobic; agar dilution; read-out: minimum inhibitory concentration (MIC)
[7] = system: Escherichia coli NIHJ JC-2; assay: as above; type: cell-based; conditions: NIHJJC2, aerobic, read-out: minimum inhibitory concentration (MIC)
[8] = system: Staphylococcus epidermidis IFO 12993; assay: as above; type: cell-based; conditions: IFO12993, aerobic, read-out: minimum inhibitory concentration (MIC)
[9] = system: Proteus rettgeri ATCC 14505; assay: as above; type: cell-based; conditions: Providencia rettgeri, ATCC14505, aerobic, read-out: minimum inhibitory concentration (MIC)
[10] = system: Enterococcus faecalis NR 2943; assay: as above; type: cell-based; conditions: NR2943, aerobic, read-out: minimum inhibitory concentration (MIC)
[11] = system: Salmonella typhimurium IFO 12529; assay: as above; type: cell-based; conditions: Salmonella enterica, aerobic, read-out: minimum inhibitory concentration (MIC)
[12] = system: Staphylococcus aureus Smith; assay: as above; type: cell-based; conditions: read-out: minimum inhibitory concentration (MIC)
[13] = system: Staphylococcus epidermidis NR 2942; assay: as above; type: cell-based; conditions: NR2942, aerobic, read-out: minimum inhibitory concentration (MIC)
Escherichia coli NR 2630 = assay: as above; type: cell-based
[14] = system: Bordetella bronchiseptica ATCC 4617; assay: as above; type: cell-based; conditions: ATCC4617, aerobic, read-out: minimum inhibitory concentration (MIC)
[15] = system: Pseudomonas aeruginosa NR 2950; assay: as above; type: cell-based; conditions: NR2950, aerobic, read-out: minimum inhibitory concentration (MIC)
[16] = system: Pseudomonas aeruginosa A3; assay: as above; type: cell-based; conditions: aerobic, read-out: minimum inhibitory concentration (MIC)
[17] = system: Citrobacter freundii IFO 12681; assay: as above; type: cell-based; conditions: IFO12681, aerobic, read-out: minimum inhibitory concentration (MIC)
[18] = system: Alcaligenes faecalis IFO 13111; assay: as above; type: cell-based; conditions: IFO13111, aerobic, read-out: minimum inhibitory concentration (MIC)
[19] = system: Proteus vulgaris OX19 ATCC 6898; assay: as above; type: cell-based; conditions: ATCC6898, aerobic, read-out: minimum inhibitory concentration (MIC)
[20] = system: Staphylococcus aureus FDA 209P JC-1; assay: as above; type: cell-based; conditions: FDA209P, read-out: minimum inhibitory concentration (MIC)
[21] = system: Serratia marcescens IFO 12648; assay: as above; type: cell-based; conditions: IFO12648, aerobic, read-out: minimum inhibitory concentration (MIC)
[22] = system: Klebsiella pneumoniae FDA PCI 602; assay: as above; type: cell-based; conditions: FDAPCI602, aerobic, read-out: minimum inhibitory concentration (MIC)
[23] = NR2630, Escherichia coli NR 2630, aerobic, agar dilution, read-out: minimum inhibitory concentration (MIC)
[24] = Staphylococcus aureus Smith, aerobic, agar dilution
[25] = Staphylococcus aureus FDA 209P JC-1, aerobic, agar dilution

Row | SMILES | MIC [1] [µg/mL] | LD50 [2] [mg/kg] | MIC [3] [µg/mL] | MIC [4] [µg/mL] | MIC [5] [µg/mL] | MIC [6] [µg/mL] | MIC [7] [µg/mL] | MIC [8] [µg/mL] | MIC [9] [µg/mL] | MIC [10] [µg/mL] | MIC [11] [µg/mL] | MIC [13] [µg/mL] | MIC [14] [µg/mL] | MIC [15] [µg/mL] | MIC [16] [µg/mL] | MIC [17] [µg/mL] | MIC [18] [µg/mL] | MIC [19] [µg/mL] | MIC [21] [µg/mL] | MIC [22] [µg/mL] | further results
1 | CN1COc2c(-n3ccnc3)c(F)cc3c(=O)c(C(=O)O)cn1c23 [Example 56, 9-fluoro-10-(1-imidazolyl)-3-methyl-7-oxo-2,3-dihydro-7H-pyrido[3,2,1-ij]-1,3,4-benzoxadiazine-6-carboxylic acid] | 0.2 (≈ 0.606 µM) | > 2000 | 0.1 (≈ 0.303 µM) | 0.0033 (≈ 0.00999 µM) | 0.05 (≈ 0.151 µM) | 0.78 (≈ 2.36 µM) | 0.1 (≈ 0.303 µM) | 0.39 (≈ 1.18 µM) | 1.56 (≈ 4.72 µM) | 12.5 (≈ 37.8 µM) | 0.05 (≈ 0.151 µM) | 0.39 (≈ 1.18 µM) | 3.13 (≈ 9.48 µM) | 6.25 (≈ 18.9 µM) | 3.13 (≈ 9.48 µM) | 0.1 (≈ 0.303 µM) | 3.13 (≈ 9.48 µM) | 0.013 (≈ 0.0394 µM) | 0.78 (≈ 2.36 µM) | 0.39 (≈ 1.18 µM) | MIC ([12]; Staphylococcus aureus): 0.39 µg/mL (≈ 1.18 µM); MIC (Escherichia coli NR 2630; [23]): 0.0065 µg/mL (≈ 0.0197 µM); MIC ([20]; Staphylococcus aureus): 0.39 µg/mL (≈ 1.18 µM)
2 | CC1CN(c2c(F)cc3c(=O)c(C(=O)O)cn4c3c2OCN4C)CCN1C (stereo not drawn) [Example 36, 10-(3,4-dimethyl-1-piperazinyl)-9-fluoro-3-methyl-7-oxo-2,3-dihydro-7H-pyrido[3,2,1-ij]-1,3,4-benzoxadiazine-6-carboxylic acid] | 0.025 (≈ 0.0664 µM) | > 2000 | 0.05 (≈ 0.133 µM) | 0.1 (≈ 0.266 µM) | 0.1 (≈ 0.266 µM) | 0.1 (≈ 0.266 µM) | 0.1 (≈ 0.266 µM) | 0.2 (≈ 0.531 µM) | 0.78 (≈ 2.07 µM) | 3.13 (≈ 8.32 µM) | 0.1 (≈ 0.266 µM) | 0.2 (≈ 0.531 µM) | 0.39 (≈ 1.04 µM) | 6.25 (≈ 16.6 µM) | 0.78 (≈ 2.07 µM) | 0.2 (≈ 0.531 µM) | 3.13 (≈ 8.32 µM) | 0.025 (≈ 0.0664 µM) | 0.39 (≈ 1.04 µM) | 0.39 (≈ 1.04 µM) | MIC [12, 24]: 0.1 µg/mL (≈ 0.266 µM); MIC (Escherichia coli NR 2630; [23]): 0.05 µg/mL (≈ 0.133 µM); MIC [20, 25]: 0.39 µg/mL (≈ 1.04 µM)
3 | CN1COc2c(N3CCNCC3)c(F)cc3c(=O)c(C(=O)O)cn1c23 [Example 6, 9-fluoro-3-methyl-7-oxo-10-(1-piperazinyl)-2,3-dihydro-7H-pyrido[3,2,1-ij]-1,3,4-benzoxadiazine-6-carboxylic acid] | 0.1 (≈ 0.287 µM) | > 2000 | 0.013 (≈ 0.0373 µM) | 0.025 (≈ 0.0718 µM) | 0.025 (≈ 0.0718 µM) | 3.13 (≈ 8.99 µM) | 0.025 (≈ 0.0718 µM) | 1.56 (≈ 4.48 µM) | 0.1 (≈ 0.287 µM) | 12.5 (≈ 35.9 µM) | 0.013 (≈ 0.0373 µM) | 1.56 (≈ 4.48 µM) | 6.25 (≈ 17.9 µM) | 0.78 (≈ 2.24 µM) | 0.1 (≈ 0.287 µM) | 0.013 (≈ 0.0373 µM) | 3.13 (≈ 8.99 µM) | 0.013 (≈ 0.0373 µM) | 0.1 (≈ 0.287 µM) | 0.1 (≈ 0.287 µM) | MIC ([12]; Staphylococcus aureus): 0.39 µg/mL (≈ 1.12 µM); MIC (Escherichia coli NR 2630; Escherichia coli, NR2630, read-out: minimum inhibitory concentration (MIC)): 0.025 µg/mL (≈ 0.0718 µM); MIC ([20]; Staphylococcus aureus): 0.39 µg/mL (≈ 1.12 µM)
4 | CCNCC1CCN(c2c(F)cc3c(=O)c(C(=O)O)cn4c3c2OCN4C)C1 (stereo not drawn) [Example 18] | 0.013 (≈ 0.0333 µM) | > 2000 | 0.05 (≈ 0.128 µM) | 0.025 (≈ 0.064 µM) | 0.05 (≈ 0.128 µM) | 0.1 (≈ 0.256 µM) | 0.05 (≈ 0.128 µM) | 0.1 (≈ 0.256 µM) | 0.39 (≈ 0.999 µM) | 1.56 (≈ 4 µM) | 0.025 (≈ 0.064 µM) | 0.1 (≈ 0.256 µM) | 3.13 (≈ 8.02 µM) | 6.25 (≈ 16 µM) | 0.78 (≈ 2 µM) | 0.1 (≈ 0.256 µM) | 6.25 (≈ 16 µM) | 0.025 (≈ 0.064 µM) | 0.39 (≈ 0.999 µM) | 0.39 (≈ 0.999 µM) | MIC [12, 24]: 0.025 µg/mL (≈ 0.064 µM); MIC (Escherichia coli NR 2630; [23]): 0.013 µg/mL (≈ 0.0333 µM); MIC [20, 25]: 0.05 µg/mL (≈ 0.128 µM)
5 | CNCC1CCN(c2c(F)cc3c(=O)c(C(=O)O)cn4c3c2OCN4C)C1 (stereo not drawn) [Example 17, 9-fluoro-3-methyl-10-[3-[(methylamino)methyl]-1-pyrrolidinyl]-7-oxo-2,3-dihydro-7H-pyrido[3,2,1-ij]-1,3,4-benzoxadiazine-6-carboxylic acid] | 0.013 (≈ 0.0345 µM) | > 2000 | 0.05 (≈ 0.133 µM) | 0.025 (≈ 0.0664 µM) | 0.1 (≈ 0.266 µM) | 0.2 (≈ 0.531 µM) | 0.1 (≈ 0.266 µM) | 0.2 (≈ 0.531 µM) | 1.56 (≈ 4.14 µM) | 1.56 (≈ 4.14 µM) | 0.05 (≈ 0.133 µM) | 0.1 (≈ 0.266 µM) | 6.25 (≈ 16.6 µM) | 6.25 (≈ 16.6 µM) | 0.39 (≈ 1.04 µM) | 0.2 (≈ 0.531 µM) | 6.25 (≈ 16.6 µM) | 0.025 (≈ 0.0664 µM) | 0.78 (≈ 2.07 µM) | 0.78 (≈ 2.07 µM) | MIC [12, 24]: 0.025 µg/mL (≈ 0.0664 µM); MIC (Escherichia coli NR 2630; [23]): 0.025 µg/mL (≈ 0.0664 µM); MIC [20, 25]: 0.05 µg/mL (≈ 0.133 µM)
6 | CC1CN(c2c(F)cc3c(=O)c(C(=O)O)cn4c3c2OCN4C)CCN1 (stereo not drawn) [Example 7, 9-fluoro-3-methyl-10-(3-methyl-1-piperazinyl)-7-oxo-2,3-dihydro-7H-pyrido[3,2,1-ij]-1,3,4-benzoxadiazine-6-carboxylic acid] | 0.1 (≈ 0.276 µM) | > 2000 | 0.05 (≈ 0.138 µM) | 0.05 (≈ 0.138 µM) | 0.1 (≈ 0.276 µM) | 1.56 (≈ 4.31 µM) | 0.1 (≈ 0.276 µM) | 0.78 (≈ 2.15 µM) | 0.78 (≈ 2.15 µM) | 12.5 (≈ 34.5 µM) | 0.05 (≈ 0.138 µM) | 0.78 (≈ 2.15 µM) | 3.13 (≈ 8.64 µM) | 3.13 (≈ 8.64 µM) | 0.2 (≈ 0.552 µM) | 0.05 (≈ 0.138 µM) | 6.25 (≈ 17.2 µM) | 0.025 (≈ 0.069 µM) | 0.2 (≈ 0.552 µM) | 0.39 (≈ 1.08 µM) | MIC [12, 24]: 0.2 µg/mL (≈ 0.552 µM); MIC (Escherichia coli NR 2630; [23]): 0.025 µg/mL (≈ 0.069 µM); MIC ([20]; Staphylococcus aureus): 0.39 µg/mL (≈ 1.08 µM)
